Assay results from US6337397B1, “Pyrimidine derivatives and their salts, useful for making benzoxazepine derivatives” (Suntory Limited, priority 1995, dated 2002).
Like-named read-outs stand apart in the source and are kept apart here.

Legend:
[1] = test system: male Wistar rats; test: Anticonflict action, NaCl-Lick conflict method; format: in vivo; details: Rattus norvegicus, po, 1 hour before the test; number of licks in 5 minutes of 2% saline; rats deprived of water for 48 hours; read-out: Minimum effective dosage
Experimental: The anticonflict action of the compounds of the general formulae (I), (II), and (III) was evaluated in accordance with the NaCl-Lick conflict method of Tanga et al. (Pharmacol., Biochem., Behav., vol. 32, pp. 773-776, 1989). That is, six-week old male Wistar rats in groups of six to 10 were deprived of water for 48 hours and placed in an experimental apparatus placed in a soundproof box (apparatus made of acrylic resin, 20×20×30 cm, provided with a drinking outlet having a diameter of 1 cm at height of 8 cm from the floor, designed to be able to measure the number of drops per unit hour by a drinkometer), and the anticonflict action of the medicament was evaluated using as an indicator the number of drops (number of licks) in 5 minutes from the start of drinking of 2% saline. The tested medicament was orally administered in an amount of 0.2 ml/100 g body weight 1 hour before the start of the test.

[2] = target: T1, serotonin 5-HT1A receptor (Rattus norvegicus, UniProt P19327); test: Affinity with serotonin receptor, [3H]8-OH-DPAT binding; design: species or system male Wistar rats; details: for D2/5-HT1A: ratio of IC50 (D2) to IC50 (5-HT1A)
T1 construct: the hippocampuses extracted from male Wistar rats were homogenized; from tissue; host or cells: rat hippocampus membrane homogenate
T1 sequence (P19327 1-422): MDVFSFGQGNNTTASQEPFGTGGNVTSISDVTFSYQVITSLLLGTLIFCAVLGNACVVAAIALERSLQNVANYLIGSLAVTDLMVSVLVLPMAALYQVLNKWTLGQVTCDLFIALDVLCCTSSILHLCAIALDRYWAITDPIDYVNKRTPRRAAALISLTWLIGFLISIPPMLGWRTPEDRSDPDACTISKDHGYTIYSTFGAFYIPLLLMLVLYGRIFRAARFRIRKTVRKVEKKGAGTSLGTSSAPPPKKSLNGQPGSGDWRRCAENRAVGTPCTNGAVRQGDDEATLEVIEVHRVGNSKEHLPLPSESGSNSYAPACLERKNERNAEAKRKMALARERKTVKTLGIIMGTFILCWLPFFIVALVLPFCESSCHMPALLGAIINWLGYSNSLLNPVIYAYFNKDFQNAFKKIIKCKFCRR
Experimental: The affinity of the compounds of the general formulas (I), (II), and (III) with a serotonin receptor was evaluated in accordance with the method of S. T. Peuroutka et al. (J. Neurochem., vol. 47, pp. 529-540, 1986). That is, the hippocampuses extracted from male Wistar rats were homogenized while adding 50 mM tris-phosphate buffer (pH 7.7). The homogenate was centrifuged at […] and 40000×g for 10 minutes. The same buffer was added to the obtained precipitate, then this was homogenized again and was similarly centrifuged to obtain the precipitate. This homogenization-centrifugation operation was repeated two times to obtain a final precipitate to which was then added 10 uM of N-methyl-N-2-propynylbenzylamine (Pargyline), 4 mM of calcium chloride, and 0.1% ascorbic acid contained in a 50 mM tris-phosphate buffer (ph 7.7). This was then homogenized to prepare the serotonin receptor.
For the binding experiment, 0.4 nM of [3H]2-di-n-propylamino-8-hydroxy-1,2,3,4-tetrahydronapthalene (8-DPAT; 8-hydroxy-N,N-dipropyl-2-aminotetetrilin) was used, various concentrations of test samples were added to a system of 0.25 mg/ml of protein or a total of 0.25 ml, and these were incubated at 25° C. for 30 minutes. A Whatman GF/C filter was used to filter each of the reaction solutions, then the filter was washed by 20 mM tris-phosphate buffer (pH 7.7). The serotonin receptor was trapped by the filter and the radio activity of the 8-OH-DAPT bonded to it was measured to find the degree of binding. The 50% inhibiting concentration of binding affinity (IC50) was calculated from the degrees of binding in the various sample concentrations. […] The IC50 values of typical compounds are shown together with the IC50 values with respect to the dopamine D2 receptor.

[3] = target: T2, dopamine D2 receptor (Rattus norvegicus, UniProt P61169); test: Affinity with dopamine D2 receptor, [3H]Raclopride binding; design: species or system male Wistar rats; details: 1.0 nM [3H]Raclopride, rat corpus striatum preparation, 25° C., 60 minutes
T2 construct: the corpus striatums excised from male Wistar rats were homogenized; from tissue; host or cells: rat corpus striatum membrane homogenate
Experimental: The affinity of the compounds of the general formulas (I), (II), and (III) with a dopamine D2 receptor was evaluated in accordance with the method of Kakohler et al. (Biochem. Pharmacol., vol. 34, pp. 2251-2259, 1985). That is, the corpus striatums excised from male Wistar rats were homogenized with the addition of 120 mM sodium chloride, 5 mM potassium chloride, 2 mM calcium chloride, 1 mM magnesium chloride, and 0.01% ascorbic acid contained in 50 mM tris-phosphate buffer (pH 7.7). The homogenate was centrifuged at […] and 35000×g for 10 minutes. The same buffer was added to the resultant precipitate,then this was homogenized again and was similarly centrifuged to obtain the precipitate. The same buffer was added to this precipitate which was then again homogenized to prepare the dopamine D2 receptor.
For the binding experiment, use was made of 1.0 nM of [3H]3,5-dichloro-N-[(1-ethyl-2-pyrrolidinyl)methyl]-6-hydroxy-o-anisamide (Raclopride), various concentrations of test samples were added to a system of 0.34 mg/ml of protein or a total of 0.25 ml, incubation was performed at 25° C. for 60 minutes, then the radioactivity was measured in the same way as in the Evaluation Example 1 to find the degree of binding.
The 50% inhibiting concentration of binding affinity (IC50) was calculated from the degrees of binding at various concentrations of the added samples. […] The IC50 values of typical compounds are shown together with the IC50 values for the serotonin receptor.

[4] = Acute toxicity after oral administration; details: rat, in vivo; 24 hours after oral administration, six-week old male rats
Description: This value is over 50 times or more of the expected clinical dosage and therefore, it is judged that the safety of the compounds according to the present invention is high.

[5] = test system: Wistar male rats; test: Ischemic brain tissue damage, transient right middle cerebral artery occlusion (MCAO) model; format: in vivo; details: Rattus norvegicus, sc, 240 h; s.c., immediately after occlusion; 60 minutes occlusion; brain tissue damage 10 days after restart of blood flow (number of benzodiazepine bindings); read-out: Minimum effective dosage
Experimental: The evaluation of the efficacy on ischemic brain damage of the compounds of the general formulae (I), (II), and (III) was performed using the transient right middle cerebral artery occlusion (MCAO) model of Koizumi et al. (Jap. J. Stroke, vol. 8, pp. 1 to 8, 1986). That is, 10 to 11 week old Wistar male rats were used and the right middle cerebral artery was temporarily obstructed for 60 minutes. 10 days after the restart of the blood flow, the brains were excised and the degree of brain tissue damage of the cerebral cortex and corpus striatum of the obstructed side were evaluated by the damage marker of the number of benzodiazepine bindings. The tested drugs were dissolved in physiological saline and administered subcutaneously at the backs of the rats immediately after the right middle cerebral artery occlusion. As a control, physiological saline of […] body weight was similarly administered.

[6] = 0.4 nM [3H]8-OH-DPAT, rat hippocampus preparation, 25° C., 30 minutes, read-out: IC50 (5-HT1A)

T2 sequence (P61169 whole entry): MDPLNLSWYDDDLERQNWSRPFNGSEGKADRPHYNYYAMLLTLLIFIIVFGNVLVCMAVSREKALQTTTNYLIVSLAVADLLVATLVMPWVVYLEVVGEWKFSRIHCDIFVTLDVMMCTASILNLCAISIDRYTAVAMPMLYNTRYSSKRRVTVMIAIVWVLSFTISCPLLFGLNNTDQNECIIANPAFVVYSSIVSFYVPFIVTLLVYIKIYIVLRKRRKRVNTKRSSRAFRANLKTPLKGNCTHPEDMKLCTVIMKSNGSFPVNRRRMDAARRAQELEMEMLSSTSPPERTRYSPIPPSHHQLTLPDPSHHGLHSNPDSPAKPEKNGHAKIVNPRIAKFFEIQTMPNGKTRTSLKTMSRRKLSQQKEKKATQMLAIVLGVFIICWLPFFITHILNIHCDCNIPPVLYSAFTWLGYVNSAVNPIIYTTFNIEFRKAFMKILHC

Row | melting point [°C] | SMILES | minimal effective dose [1] [mg/kg] | D2/5-HT1A [2] | IC50 [3] [nM] | further results
1 | 150 to 151 | O=C1c2ccccc2OC=CN1CCCCN1CCN(c2ccccn2)CC1 [Example 32, 4,5-dihydro-4-(4-(4-(2-pyridyl)piperazin-1-yl)butyl)-1,4-benzoxazepin-5-one] | 30 | – | – | –
2 | 156 to 158 | COc1ccc2c(c1)OC=CN(CCCCN1CCN(c3ncccn3)CC1)C2=O [Example 33, 4,5-dihydro-8-methoxy-4-(4-(4-(2-pyrimidinyl)piperazin-1-yl)butyl)-1,4-benzoxazepin-5-one] | 10 | – | – | –
3 | 141 to 142 | CC1=COc2ccccc2C(=O)N1CCCCN1CCN(c2ncccn2)CC1 [Example 34, 4,5-dihydro-3-methyl-4-(4-(4-(2-pyrimidinyl)piperazin-1-yl)butyl)-1,4-benzoxazepin-5-one] | 30 | – | – | –
4 | 166 to 168 | CC1=COc2ccccc2C(=O)N1CCCCN1CCN(c2cccc(Cl)n2)CC1 [Example 35, 4-(4-(4-(2-chloropyridin-6-yl)piperazin-1-yl)butyl)-4,5-dihydro-3-methyl-1,4-benzoxazepin-5-one] | – | 196 | 294 | IC50 [2, 6]: 1.5 nM
5 | 113 to 115 | CC1=COc2cc(C)ccc2C(=O)N1CCCCN1CCN(c2cccc(C)c2)CC1 [Example 37] | – | – | – | –
6 | 88 to 90 | COc1ccccc1N1CCN(CCCCN2C(=O)c3ccc(C)cc3OC=C2C)CC1 [Example 38, 4,5-dihydro-3,8-dimethyl-4-(4-(4-(2-methoxyphenyl)piperazin-1-yl)butyl)-1,4-benzoxazepin-5-one] | – | – | – | –
7 | 243 to 245 | CC1=COc2ccc(C)cc2C(=O)N1CCCCN1CCN(c2ncc(F)c(N)n2)CC1 [Example 40, 4-(4-(4-(4-amino-5-fluoropyrimidin-2-yl)piperazin-1-yl)butyl)-4,5-dihydro-3,7-dimethyl-1,4-benzoxazepin-5-one] | – | – | – | –
8 | – | O=C1c2ccccc2OC=C(Cl)N1CCCCN1CC=C(c2ncccn2)CC1 [Example 56, 3-chloro-4,5-dihydro-4-(4-(4-(2-pyrimidinyl)-1,2,5,6-tetrahydropyridin-1-yl)butyl)-1,4-benzoxazepin-5-one] | – | 358 | 494 | LD50 at 24 h [4]: ≥ 100 mg/kg; IC50 [2]: 1.38 nM; minimal effective dose [5]: 1 mg/kg
9 | – | O=C1c2ccccc2OC=C(Cl)N1CCCCN1CC=C(c2ccccn2)CC1 [Example 82] | 30 | 84 | 128 | IC50 [2, 6]: 0.47 nM; minimal effective dose [5]: 0.3 mg/kg
